# Assay results published in patent publication US6358538B1, “Method for protecting plants from fungus” (priority 1999, dated 2002).
# Tested on: fungus
# Description: Various fertilizer quality nitrate salts have been used to test this effect, particularly potassium nitrate, ammonium nitrate, calcium nitrate, and sodium nitrate.
compound,measurement,setting,value
"O=[N+]([O-])O [nitrate ions, nitrate]",concentration of nitrate ions in the solution found to be generally effective,"at the sprinkler/mist head, plants in open ground plots, approx. 10 pounds nitrate salts per acre in approx. 1,000 gallons of water",700 parts per million of water
same,effect on germination of fungal spores and subsequent development,"weak solutions, fungi on ground surface and plant surfaces, under certain conditions",fungistatic effect
